The target of one assay is T1, TTK (Homo sapiens, UniProt P33981).
T1 sequence (P33981 1-857): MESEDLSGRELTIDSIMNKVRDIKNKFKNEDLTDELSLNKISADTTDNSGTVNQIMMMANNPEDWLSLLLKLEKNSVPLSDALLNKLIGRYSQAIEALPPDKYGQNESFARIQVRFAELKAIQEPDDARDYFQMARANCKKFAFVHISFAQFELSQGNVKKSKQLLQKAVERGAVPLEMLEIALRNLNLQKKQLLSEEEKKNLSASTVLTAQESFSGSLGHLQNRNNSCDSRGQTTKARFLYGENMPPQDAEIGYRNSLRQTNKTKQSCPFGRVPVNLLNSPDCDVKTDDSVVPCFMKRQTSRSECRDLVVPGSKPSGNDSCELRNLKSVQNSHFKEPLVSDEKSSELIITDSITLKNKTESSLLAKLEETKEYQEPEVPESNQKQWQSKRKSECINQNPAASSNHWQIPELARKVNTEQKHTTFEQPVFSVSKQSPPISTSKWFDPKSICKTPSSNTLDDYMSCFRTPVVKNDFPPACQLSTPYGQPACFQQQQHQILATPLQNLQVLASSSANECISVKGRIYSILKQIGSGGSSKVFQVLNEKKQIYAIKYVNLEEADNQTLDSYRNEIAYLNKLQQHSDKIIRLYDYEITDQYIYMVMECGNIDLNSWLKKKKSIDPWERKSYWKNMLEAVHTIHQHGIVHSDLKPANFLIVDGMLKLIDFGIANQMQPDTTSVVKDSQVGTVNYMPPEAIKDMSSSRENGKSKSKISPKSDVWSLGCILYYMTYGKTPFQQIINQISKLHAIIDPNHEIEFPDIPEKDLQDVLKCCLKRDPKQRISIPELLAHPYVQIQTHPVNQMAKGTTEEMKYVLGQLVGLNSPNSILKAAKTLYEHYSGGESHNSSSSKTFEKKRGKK
In words: TTK assay: screening of TTK kinase activity suppressing action using p38 MAPK peptide. Format: biochemical. Conditions: p38 MAPK peptide substrate; read-out: TTK IC50. As to the method: Screening of a compound having a TTK kinase activity suppressing action using p38 MAPK peptide
A test substance 1.0 μL (solvent: 10% (v/v) DMSO), TTK solution 5 μL (composition: 4 μg/ml TTK, 25 mM Tris-HCl, pH7.5, 5 mM β-glycerophosphate, 2 mM DTT, 0.1 mM Na3VO4, 5 mM MgCl2, 0.1% (w/v)BSA) and a substrate solution 5 μL (composition: 60 μM p38 MAPK peptide, 60 μM ATP, 25 mM Tris-HCl, pH7.5, 5 mM β-glycerophosphate, 2 mM DTT, 0.1 mM Na3VO4, 5 mM MgCl2, 0.1% (w/v)BSA) were mixed in the wells of a 384-well microtiter plate (manufactured by Corning Incorporated) made of polypropylene and loaded in a constant temperature and humidity room.
From the resultant mixture, an aliquot of 1.7 μL was taken out and mixed with the reaction terminating solution (60 μl) in the wells of a 384-well microtiter plate (manufactured by Corning Incorporated) made of polypropylene. Thereafter, 40 μL of the mixture was transferred to a 384-well black NeutrAvidin plate (PIERCE), sealed and incubated under room temperature for 30 minutes. […] Similarly, the plate was washed with TTBS (100 μL) three times, 40 μl of a secondary antibody solution (Eu-N1 labeled Anti-mouse IgG (Perkin Elmer, #AD0124)) was added and incubated under room temperature for 30 minutes. After the plate was washed with TTBS (100 μL) five times, 40 μL of an enhance solution (Perkin Elmer) was added and incubated under room temperature for 5 minutes. […] Based on the fluorescence value in the absence of a test substance, the suppression activity of a test substance was measured.

For a further assay, the system named is A549. In words: A549 assay: screening of cancer cell growth inhibiting compound. Conditions: Homo sapiens, 72 h; A549 cells, three days, WST-8; read-out: A549 IC50. Format: cell-based. As to the method: Screening of Cancer Cell Growth Inhibiting Compound
A cell suspension solution (RERF-LC-AI, A549: 1×10^4/ml, MRC5: 3×10^4/ml and 1×10^5/ml) adjusted to an appropriate concentration with D-MEM (hereinafter, referred to as a culture solution and manufactured by Nacalai Tesque Inc.) supplemented with 10% FBS (HyClone) was added to the wells of a 96-well plate (hereinafter, well plate) at a rate of 100 μL/well and incubated in a CO2 incubator at 37° C. for a day. […] Next, cells were added to each well of the well plate prepared and the above compound dilution solution was added at a rate of 100 μL/well to obtain 200 μL/well. Thereafter, the cells were incubated in the CO2 incubator at 37° C. for further three days. To each well of the well plate, 10 μL of a WST-8 kit (Kishida Chemical Co., Ltd.) solution for counting the number of cells was added and a color reaction was performed in the CO2 incubator for 1 to 4 hours. After the absorbance at 450 nm (reference wavelength: 620 nm) was measured by a microplate reader, suppressing action of the test substance was calculated based on the absorbance value in the absence of a test substance.

What is called IC50 is the concentration needed to halve the response being measured. Consider `O=C(NC1CC1)c1ccc(-c2cnc3c(NCC4CCOCC4)cc(NCC4CCCCC4)nn23)cc1` [Example 2-16], for which the values for the concentration for half-maximal inhibition (IC50) on TTK and with A549 were 4.8 nM and 50 to 500 nM, respectively.

In the case of `CN(c1cc(NCC2CCOCC2)c2ncc(-c3ccc(C(=O)NC4CC4)cc3)n2n1)C1CCCCC1` [Example 2-17], the half-maximal inhibitory concentration (IC50) is 3.1 nM on TTK and ≤ 50 nM in the assay on A549.

Take `COCCNc1cc(NCC2CCOCC2)c2ncc(-c3ccc(C(=O)NC4CC4)cc3)n2n1` [Example 2-18]: the half-maximal inhibitory concentration (IC50) is 18.4 nM on TTK and 50 to 500 nM with A549.

Turning to `CC1CCC(Nc2cc(NCC3CCOCC3)c3ncc(-c4ccc(C(=O)NC5CC5)cc4)n3n2)CC1` (stereo not drawn) [Example 2-19], the IC50 at TTK is 6 nM; in the assay on A549, 50 to 500 nM.

On to `CCCNc1cc(NCC2CCOCC2)c2ncc(-c3ccc(C(=O)NC4CC4)cc3)n2n1` [Example 2-21], for which the IC50 at TTK was 7 nM; in the assay on A549, 50 to 500 nM.

Take `CC(C)CNc1cc(NCC2CCOCC2)c2ncc(-c3ccc(C(=O)NC4CC4)cc3)n2n1` [Example 2-22]: the 50% inhibitory concentration (IC50) is 6.2 nM at TTK and 50 to 500 nM in the assay on A549.

For the compound `N#CC1CCN(c2cc(NCC3CCOCC3)c3ncc(-c4ccc(C(=O)NC5CC5)cc4)n3n2)CC1` [Example 2-23], the figures for the IC50 on TTK and in the assay with A549 were 8.8 nM and 50 to 500 nM, respectively.

For the compound `CC(C)N(C)c1cc(NCC2CCOCC2)c2ncc(-c3ccc(C(=O)NC4CC4)cc3)n2n1` [Example 2-24], the concentration for half-maximal inhibition (IC50) was 5.5 nM at TTK and 50 to 500 nM with A549.

As for `O=C(NC1CC1)c1ccc(-c2cnc3c(NCC4CCOCC4)cc(NC4CCC4)nn23)cc1` [Example 2-25], the IC50 was 5.6 nM on TTK and 50 to 500 nM in the assay with A549.

Take `COC1CCN(c2cc(NCC3CCOCC3)c3ncc(-c4ccc(C(=O)NC5CC5)cc4)n3n2)CC1` [Example 2-26]: the IC50 at TTK was 8.9 nM; in the assay on A549, 50 to 500 nM.

As for `CCN(c1cc(NCC2CCOCC2)c2ncc(-c3ccc(C(=O)NC4CC4)cc3)n2n1)C1CCCC1` [Example 2-27], the IC50 on TTK is 6 nM; in the assay with A549, 50 to 500 nM.

For the compound `CN(c1cc(NCC2CCOCC2)c2ncc(-c3ccc(C(=O)NC4CC4)cc3)n2n1)C1CCCC1` [Example 2-28], the 50% inhibitory concentration (IC50) was 3.7 nM on TTK and 50 to 500 nM in the assay with A549.

For the compound `COCCN(c1cc(NCC2CCOCC2)c2ncc(-c3ccc(C(=O)NC4CC4)cc3)n2n1)C1CCCC1` [Example 2-29], the values for the IC50 on TTK and with A549 were 6.2 nM and 50 to 500 nM, respectively.

Take `O=C(NC1CC1)c1ccc(-c2cnc3c(NCC4CCOCC4)cc(NCC(F)(F)F)nn23)cc1` [Example 2-30]: the IC50 is 11.9 nM on TTK and 50 to 500 nM in the assay with A549.

As for `CC(C)CN(CC(F)(F)F)c1cc(NCC2CCOCC2)c2ncc(-c3ccc(C(=O)NC4CC4)cc3)n2n1` [Example 2-32], the half-inhibitory concentration (IC50) at TTK is 3.9 nM; in the assay on A549, 50 to 500 nM.

Consider `CC(C)CN(CC1CC1)c1cc(NCC2CCOCC2)c2ncc(-c3ccc(C(=O)NC4CC4)cc3)n2n1` [Example 2-33], for which the results for the half-inhibitory concentration (IC50) at TTK and in the assay on A549 were 5.4 nM and 500 to 1000 nM, respectively.

`O=C(NC1CC1)c1ccc(-c2cnc3c(NCC4CCOCC4)cc(Nc4ccccc4O)nn23)cc1` [Example 2-34]: the concentration for half-maximal inhibition (IC50) is 3.7 nM at TTK and 50 to 500 nM in the assay with A549.

With `O=C(NC1CC1)c1ccc(-c2cnc3c(NCC4CCOCC4)cc(Nc4ncccc4O)nn23)cc1` [Example 2-35], the IC50 on TTK was 19.3 nM; in the assay with A549, 1000 to 10000 nM.

For the compound `O=C(NC1CC1)c1ccc(-c2cnc3c(NCC4CCOCC4)cc(NC(=O)C4CCCCC4)nn23)cc1` [Example 2-36], the IC50 at TTK was 44.2 nM; in the assay with A549, 1000 to 10000 nM.

Take `O=C(NC1CC1)c1ccc(-c2cnc3c(NCC4CCOCC4)cc(NC45CC6CC(CC4C6)C5)nn23)cc1` [Example 2-37]: the IC50 at TTK was 2.7 nM; in the assay on A549, ≤ 50 nM.

`O=C(NC1CC1)c1ccc(-c2cnc3c(NCC4CCOCC4)cc(NC4CC5CCCC(C5)C4)nn23)cc1` (stereo not drawn) [Example 2-38]: the IC50 is 4.5 nM at TTK and ≤ 50 nM in the assay on A549.

Take `O=C(NC1CC1)c1ccc(-c2cnc3c(NCC4CCOCC4)cc(N4CCCC4=O)nn23)cc1` [Example 2-39]: the results for the concentration for half-maximal inhibition (IC50) at TTK and in the assay with A549 were 22 nM and 50 to 500 nM, respectively.

In the case of `O=C(NC1CC1)c1ccc(-c2cnc3c(NCC4CCOCC4)cc(N4CCCCS4(=O)=O)nn23)cc1` [Example 2-40], the concentration for half-maximal inhibition (IC50) at TTK is 7.5 nM; in the assay on A549 it was 50 to 500 nM.

With `C[C@@H]1CN(c2cc(NCC3CCOCC3)c3ncc(-c4ccc(C(=O)NC5CC5)cc4)n3n2)C[C@H](C)O1` [Example 2-41], the half-maximal inhibitory concentration (IC50) is 10.1 nM at TTK and 50 to 500 nM with A549.

Consider `O=C(NC1CC1)c1ccc(-c2cnc3c(NCC4CCOCC4)cc(N[C@H]4CC[C@H](O)CC4)nn23)cc1` [Example 2-43], for which the figures for the IC50 on TTK and in the assay with A549 were 12.5 nM and 500 to 1000 nM, respectively.

In the case of `O=C(NC1CC1)c1ccc(-c2cnc3c(NCC4CCOCC4)cc(N4CCN(C(=O)C5CC5)CC4)nn23)cc1` [Example 2-47], the values for the half-maximal inhibitory concentration (IC50) at TTK and in the assay with A549 were 3.1 nM and 50 to 500 nM, respectively.

On to `CC(=O)NCC1CN(c2cc(NCC3CCOCC3)c3ncc(-c4ccc(C(=O)NC5CC5)cc4)n3n2)CCO1` (stereo not drawn) [Example 2-48], for which the half-maximal inhibitory concentration (IC50) is 13.9 nM on TTK and 1000 to 10000 nM in the assay with A549.

For `O=C(NC1CC1)c1ccc(-c2cnc3c(NCC4CCOCC4)cc(N4CCOC(CO)C4)nn23)cc1` (stereo not drawn) [Example 2-49], the results for the 50% inhibitory concentration (IC50) on TTK and in the assay on A549 were 17.8 nM and 500 to 1000 nM, respectively.

As to `O=C(NC1CC1)c1ccc(-c2cnc3c(NCC4CCOCC4)cc(N4CCC(C(F)(F)F)CC4)nn23)cc1` [Example 2-51], the IC50 is 13.4 nM on TTK and 50 to 500 nM with A549.

Turning to `COCC(C)Nc1cc(NCC2CCOCC2)c2ncc(-c3ccc(C(=O)NC4CC4)cc3)n2n1` (stereo not drawn) [Example 2-52], the IC50 is 17.8 nM at TTK and 50 to 500 nM with A549.

With `O=C(NC1CC1)c1ccc(-c2cnc3c(NCC4CCOCC4)cc(N4CCCC4)nn23)cc1` [Example 2-53], the 50% inhibitory concentration (IC50) at TTK was 25.9 nM; with A549, 1000 to 10000 nM.

`O=C(NC1CC1)c1ccc(-c2cnc3c(NCC4CCOCC4)cc(NC4CC=CC4)nn23)cc1` [Example 2-54]: the IC50 at TTK was 7.4 nM; in the assay on A549 it was 50 to 500 nM.

Turning to `CC(C)C(C)Nc1cc(NCC2CCOCC2)c2ncc(-c3ccc(C(=O)NC4CC4)cc3)n2n1` (stereo not drawn) [Example 2-55], the IC50 on TTK was 4.9 nM; in the assay with A549 it was 50 to 500 nM.

Consider `CC(C)(C)CNc1cc(NCC2CCOCC2)c2ncc(-c3ccc(C(=O)NC4CC4)cc3)n2n1` [Example 2-57], for which the values for the IC50 at TTK and in the assay on A549 were 4.5 nM and 50 to 500 nM, respectively.

Take `CCCC(C)Nc1cc(NCC2CCOCC2)c2ncc(-c3ccc(C(=O)NC4CC4)cc3)n2n1` (stereo not drawn) [Example 2-58]: the IC50 is 5.5 nM on TTK and 50 to 500 nM in the assay with A549.

On to `CCC(C)CNc1cc(NCC2CCOCC2)c2ncc(-c3ccc(C(=O)NC4CC4)cc3)n2n1` (stereo not drawn) [Example 2-59], for which the values for the concentration for half-maximal inhibition (IC50) at TTK and in the assay with A549 were 5.2 nM and 50 to 500 nM, respectively.

For the origin of these results see patent US20120059162A1, “FUSED IMIDAZOLE DERIVATIVE HAVING TTK INHIBITORY ACTION” (Oncotherapy Science, Inc., priority 2009, published 2012).
